Test results as given in the NIST ThermoML archive (doi:10.1007/s10765-005-8096-3).

Assay: refractive index (Na D-line) (dimensionless); xn = mol fraction of the nth substance listed
Details: 101 kPa, Liquid, Standard Abbe refractometry

CCCCc1ccccc1 [butylbenzene] + CCCCOC(C)=O
refractive index
Details | 293.15 K | 298.15 K | 303.15 K | 308.15 K | 313.15 K
x2 = 0.049 | 1.48578 | 1.48339 | 1.48091 | 1.47847 | 1.47595
x2 = 0.1016 | 1.48141 | 1.47885 | 1.47649 | 1.47387 | 1.47154
x2 = 0.1545 | 1.47686 | 1.47443 | 1.47201 | 1.46946 | 1.46708
x2 = 0.1989 | 1.47295 | 1.47054 | 1.46814 | 1.46556 | 1.46318
x2 = 0.2515 | 1.46838 | 1.46596 | 1.46358 | 1.461 | 1.45858
x2 = 0.3023 | 1.46389 | 1.46143 | 1.45905 | 1.45651 | 1.45403
x2 = 0.3501 | 1.45956 | 1.45713 | 1.4547 | 1.45232 | 1.44977
x2 = 0.3997 | 1.45505 | 1.45258 | 1.45018 | 1.44769 | 1.44526
x2 = 0.45 | 1.45031 | 1.44787 | 1.44547 | 1.44298 | 1.44055
x2 = 0.4993 | 1.44563 | 1.44318 | 1.44078 | 1.43832 | 1.43589
x2 = 0.5496 | 1.44082 | 1.43837 | 1.43591 | 1.43351 | 1.43104
x2 = 0.6004 | 1.43586 | 1.43342 | 1.43102 | 1.42848 | 1.42602
x2 = 0.6499 | 1.43099 | 1.42852 | 1.42607 | 1.42354 | 1.42107
x2 = 0.6998 | 1.42593 | 1.42345 | 1.42099 | 1.41852 | 1.41609
x2 = 0.7517 | 1.4207 | 1.41819 | 1.41576 | 1.41331 | 1.41084
x2 = 0.801 | 1.41551 | 1.41312 | 1.4106 | 1.40817 | 1.40574
x2 = 0.8489 | 1.41049 | 1.40806 | 1.40567 | 1.40319 | 1.40078
x2 = 0.8999 | 1.40499 | 1.40257 | 1.40021 | 1.39782 | 1.39529
x2 = 0.9493 | 1.39969 | 1.39734 | 1.39484 | 1.39244 | 1.39
